In article PMC11191095, “QSAR Reveals Decreased Lipophilicity of Polar Residues Determines the Selectivity of Antimicrobial Peptide Activity” (ACS Omega, 2024):
Where a SMILES comes first, the peptide text is derived from it.

Legend:
P. aeruginosa PAO1 = experiment: microbe, parasite or virus in culture; type: cell-based, Pseudomonas aeruginosa; settings: P. aeruginosa PAO1 (S)
In short: (§1)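 Peptides 128→2 μg/mL, 2-fold series; inoculum ~5 × 10^5 CFU/mL from overnight culture (OD600 0.01, mixed 1:1). MHB non-cation-adjusted for bacteria, RPMI 1640 + 2% glucose for fungi. 37 °C, 20 h, OD600. MIC50/MIC90 at 50%/90% inhibition; n ≥ 3.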

S. aureus (MRSA) 1199B = experiment: microbe, parasite or virus in culture; type: cell-based, Staphylococcus aureus; settings: S. aureus (MRSA) 1199B (R)
In short: as §1

HaCat cell line = experiment: In vitro HaCat cytotoxicity (MTT); type: cell-based, human; settings: 21 h exposure, OD570, relative to untreated control
In short: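 HaCat keratinocytes were first screened with peptide at 256 μg/mL for 21 h at 37 °C, and a dose-response was run only when cytotoxicity reached p < 0.0001. Viability was read by MTT (3 h, OD570) relative to untreated control, and LC50 was taken from the dose-response curves.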

[1] = RP-HPLC ElutionTime as indicator of hydrophobicity; type: physicochemical; settings: indicator of overall hydrophobicity; semipreparative RP-HPLC, Waters SymmetryPrep C8, water/ACN gradient with 0.1% TFA, 8 mL/min, 25 °C, 254 nm
Description: Crude peptides, made up to 10 mg/mL in 0.1% TFA (v/v) in ddH2O, were subjected to preparative RP-HPLC purification on an Agilent 1100 system, with elution in gradient. A gradient program at a flow rate of 8 mL/min and column temperature of 25 °C was used to achieve elution with solvent A (0.1% trifluoroacetic acid (TFA) in water (v/v)) and solvent B (0.1% TFA in 100% acetonitrile (ACN) (v/v)). The elution program was as follows: (1) At 0–73 min, 100% solvent A to 0% solvent B; (2) at 73–77 min, 40% solvent A to 60% solvent B; (3) at 77–93 min, 10% solvent A to 90% solvent B; (4) at 93–105 min, 100% solvent A to 0% solvent B. Data collected were the retention time of the major fraction for each peptide in minutes as RP-HPLC ElutionTime (ElutionTime). Absorbance was detected at 254 nm, and fractions were collected manually. The fractions collected were spun in a speed-vac to remove ACN and the contents lyophilized. After freeze-drying for 24 h the peptides were dissolved in 10% (v/v) acetic acid before being lyophilized for a second time and then stored at −20 °C.
Molecular descriptors used in the QSAR analysis included: charge, sequence length, overall lipophilicity (L), lipophilicity contributed by the polar or nonpolar residues (LP and LN), summation of the side chain surface areas of the total peptide, polar or nonpolar residues (SCSA, SCSAP, and SCSAN), the molecular weight of the entire peptide, polar or nonpolar residues (Mw, MwP, and MwN), count of small lipophilic residues (CSL) or aromatic residues (CAR), the total number of hydrogen bond donor and acceptor centers (HBtot, HBdon, and HBacc), the total number of rotatable bonds (#RotBonds) and various amphipathicity descriptors (LP/L, LP/LN, L/LN, Q/L, Q/LN, SCSAP/SCSAN, MwP/MwN, Q/CSL, and Q/CAR) (Suppl. Table S1). Experimentally determined characteristics included ElutionTime as an indicator of overall peptide hydrophobicity and the CD structure of each peptide determined in POPG/POPE lipids representing Gram-negative membranes, POPG lipids for Gram-positive membranes, and SDS micelles for fungal membranes. AMPs with an α-helical structure were labeled 4, β-sheets were labeled 3, β-turns and mixed conformations were labeled 2, and disordered structures were labeled 1.

[2] = MHB, 37 °C, 20 h, OD600, min. three biological repeats

Compound | Modal MIC (P. aeruginosa PAO1; [2]) | Modal MIC (P. aeruginosa PAO1; shown in µM) | Modal MIC (S. aureus (MRSA) 1199B; [2]) | Modal MIC (S. aureus (MRSA) 1199B; shown in µM) | % HaCat cell death at initial screening (256μg/mL) ± SD (HaCat cell line) | % HaCat cell death at initial screening (256μg/mL) ± SD (HaCat cell line; listed as Os(11–22)a) | ElutionTime (RP-HPLC retention time of major fraction) [1]
C[C@H](NC(=O)CNC(=O)[C@H](CCCCN)NC(=O)[C@@H](N)CS)C(=O)N[C@@H](Cc1ccccc1)C(=O)N[C@@H](CCCCN)C(=O)N[C@@H](CCC(N)=O)C(=O)N[C@H](C(=O)N[C@@H](CS)C(=O)N[C@@H](CCCCN)C(=O)N[C@@H](CS)C(=O)N[C@@H](Cc1ccc(O)cc1)C(N)=O)[C@@H](C)O [Os(11-22)a] (H-CKGAFKQTCKCY-NH2; N-terminus assumed) | > 128 µg/mL | > 91.7 µM | > 128 µg/mL | > 91.7 µM | 59.5 ±13.9% | 59.5% | 21,3 min
CC[C@H](C)[C@H](NC(=O)CNC(=O)[C@@H](N)CCCCN)C(=O)N[C@@H](CCCNC(=N)N)C(=O)NCC(=O)N[C@@H](Cc1ccc(O)cc1)C(=O)N[C@@H](CCCCN)C(=O)NCC(=O)NCC(=O)N[C@@H](Cc1ccc(O)cc1)C(=O)N[C@@H](CS)C(=O)N[C@@H](CCCCN)C(=O)NCC(=O)N[C@@H](C)C(=O)N[C@@H](Cc1ccccc1)C(=O)N[C@@H](CCCCN)C(=O)N[C@@H](CCC(N)=O)C(=O)N[C@H](C(=O)N[C@@H](CS)C(=O)N[C@@H](CCCCN)C(=O)N[C@@H](CS)C(=O)N[C@@H](Cc1ccc(O)cc1)C(=O)O)[C@@H](C)O [Os] (H-KGIRGYKGGYCKGAFKQTCKCY-OH; N-terminus and C-terminus assumed) | > 128 µg/mL | > 51.7 µM | > 128 µg/mL | > 51.7 µM |  |  | 24,7 min
CC[C@H](C)[C@H](NC(=O)CNC(=O)[C@@H](N)CCCCN)C(=O)N[C@@H](CCCNC(=N)N)C(=O)NCC(=O)N[C@@H](Cc1ccc(O)cc1)C(=O)N[C@@H](CCCCN)C(=O)NCC(=O)NCC(=O)N[C@@H](Cc1ccc(O)cc1)C(=O)N[C@@H](CS)C(=O)N[C@@H](CCCCN)C(=O)NCC(=O)N[C@@H](C)C(=O)N[C@@H](Cc1ccccc1)C(=O)N[C@@H](CCCCN)C(=O)N[C@@H](CCC(N)=O)C(=O)N[C@H](C(=O)N[C@@H](CS)C(=O)N[C@@H](CCCCN)C(=O)N[C@@H](CS)C(=O)N[C@@H](Cc1ccc(O)cc1)C(N)=O)[C@@H](C)O [Osa] (H-KGIRGYKGGYCKGAFKQTCKCY-NH2; N-terminus assumed) | > 128 µg/mL | > 51.7 µM | > 128 µg/mL | > 51.7 µM |  |  | 24,5 min
CC(C)C[C@H](NC(=O)[C@H](CCCCN)NC(=O)[C@H](CO)NC(=O)[C@H](CCCCN)NC(=O)[C@@H](N)Cc1c[nH]c2ccccc12)C(=O)N[C@@H](C)C(=O)N[C@@H](CCCCN)C(=O)N[C@@H](CCCCN)C(N)=O [PS-PB-8a] (H-WKSKLAKK-NH2) | > 128 µg/mL | > 127.2 µM | > 128 µg/mL | > 127.2 µM |  |  | 
CC(C)C[C@H](NC(=O)[C@H](CCCCN)NC(=O)[C@H](CO)NC(=O)[C@H](CCCCN)NC(=O)[C@H](Cc1c[nH]c2ccccc12)NC(=O)[C@H](C)NC(=O)[C@H](CCCCN)NC(=O)[C@@H](N)CCCCN)C(=O)N[C@@H](C)C(=O)N[C@@H](CCCCN)C(=O)N[C@@H](CCCCN)C(=O)N[C@@H](CC(C)C)C(=O)N[C@@H](CCCNC(=N)N)C(=O)N[C@@H](C)C(=O)N[C@@H](CCCCN)C(=O)NCC(=O)N[C@@H](CCCCN)C(N)=O [PS-PB-14a] (H-KKAWKSKLAKKLRAKGK-NH2) | > 128 µg/mL | > 63.8 µM | > 128 µg/mL | > 63.8 µM |  |  | 
KCLTLRSLKKTLKFCASGRT-NH2 [X1-20a, novel amidated frog AMP derivative, Xenopus laevis] | > 128 µg/mL | > 55 µM |  | > 55 µM |  |  | 31,7 min
